The record followed here is patent US9242996B2 (Novartis AG, priority 2013, dated 2016).

Molecules are shown by their SMILES.

What is called IC50 is the point on the concentration scale where inhibition reaches its midpoint. Read a high IC50 as weaker potency in that assay.

The assay deals with activated ERK2 (Homo sapiens (Human), UniProt P28482). Kind of assay: Activated ERK2 kinase assay, ERK2 New conditions (AlphaScreen, ERKtide phosphorylation). Format: biochemical. To be noted: 0.25 nM ERK2, 200 nM ERKtide peptide, 35 μM ATP, 30 min preincubation. In outline: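 0.25 nM ERK2 preincubated 30 min with compound, then reacted 2–3 h at ambient temperature with 200 nM ERKtide and 35 µM ATP (final) in HEPES pH 7.5 buffer. EDTA stop; phospho-peptide detected by AlphaScreen after overnight incubation; IC50 from four-parameter fit.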
Sequence of activated ERK2 (P28482 whole entry): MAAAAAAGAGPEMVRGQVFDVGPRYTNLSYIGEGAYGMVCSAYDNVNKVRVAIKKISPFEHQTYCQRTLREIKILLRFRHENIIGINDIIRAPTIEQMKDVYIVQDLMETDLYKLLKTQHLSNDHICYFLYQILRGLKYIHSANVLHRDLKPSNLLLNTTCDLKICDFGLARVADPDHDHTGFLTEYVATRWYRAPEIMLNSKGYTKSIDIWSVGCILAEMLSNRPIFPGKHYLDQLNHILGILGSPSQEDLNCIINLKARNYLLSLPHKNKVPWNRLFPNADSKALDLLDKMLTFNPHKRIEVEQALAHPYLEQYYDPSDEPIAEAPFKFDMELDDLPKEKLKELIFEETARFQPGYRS
(In general: Alpha assays give light when donor and acceptor beads are brought close together.)
`Cn1cc(-c2cnc(N)c(-c3ccc(C(=O)NCc4cccc(C(F)F)c4)c(F)c3)c2)cn1` [Example 245, 4-(2-amino-5-(1-methyl-1H-pyrazol-4-yl)pyridin-3-yl)-N-(3-(difluoromethyl)benzyl)-2-fluorobenzamide] came in with an IC50 of 2.67 nM. This lies in the single-digit nanomolar range.

In the case of `Cn1cc(-c2cnc(N)c(-c3ccc(C(=O)NCc4cccc(Br)c4)c(F)c3)c2)cn1` [Example 246, 4-(2-amino-5-(1-methyl-1H-pyrazol-4-yl)pyridin-3-yl)-N-(3-bromobenzyl)-2-fluorobenzamide], the IC50 worked out at 1.52 nM.

In turn, `Cc1c(-c2cnc(N)c(-c3ccc(C(=O)N[C@H](CO)c4ccccc4)c(F)c3)n2)cnn1C` [Example 247, (S)-4-(3-amino-6-(1,5-dimethyl-1H-pyrazol-4-yl)pyrazin-2-yl)-2-fluoro-N-(2-hydroxy-1-phenylethyl) benzamide] displayed an IC50 of 0.73 nM.

Molecule `Nc1ncc(C2CC2)nc1-c1ccc(C(=O)N[C@H](CO)c2ccccc2)c(F)c1` [Example 251, (S)-4-(3-amino-6-cyclo-propylpyrazin-2-yl)-2-fluoro-N-(2-hydroxy-1-phenylethyl) benzamide] came in with an IC50 of 7.04 nM. Against the preceding molecule, the IC50 is about 9.6-fold higher.

As to `NC[C@@H](NC(=O)c1ccc(-c2nc(C3CC3)cnc2N)cc1F)c1ccccc1` [Example 252, (S)-N-(2-amino-1-phenylethyl)-4-(3-amino-6-cyclo-propylpyrazin-2-yl)-2-fluorobenzamide], the IC50 was determined as 2.6 nM.

`Nc1ncc(-c2cn[nH]c2)nc1-c1ccc(C(=O)N[C@H](CO)c2ccccc2)c(F)c1` [Example 268, (S)-4-(3-amino-6-(1H-pyrazol-4-yl)pyrazin-2-yl)-2-fluoro-N-(2-hydroxy-1-phenylethyl) benzamide] gave a half-inhibitory concentration (IC50) of 4.8 nM. Compared with the last molecule, the IC50 is about 1.8-fold higher.

In turn, `Cc1cc(-c2cc(-c3cnn(C)c3)cnc2N)ccc1C(=O)N[C@H](CO)c1ccccc1` [Example 269, (S)-4-(2-amino-5-(1-methyl-1H-pyrazol-4-yl)pyridin-3-yl)-N-(2-hydroxy-1-phenylethyl)-2-methylbenzamide] gave an IC50 of 1.08 nM.

`Cn1cc(-c2cnc(N)c(-c3ccc(C(=O)N[C@H](CO)c4cccc(F)c4)c(F)c3)n2)cn1` [Example 280, (S)-4-(3-amino-6-(1-methyl-1H-pyrazol-4-yl)pyrazin-2-yl)-2-fluoro-N-(1-(3-fluorophenyl)-2-hydroxyethyl) benzamide] gave an IC50 of 1.66 nM.

`CS(=O)(=O)c1cccc([C@@H](CO)NC(=O)c2ccc(-c3nc(C4CC4)cnc3N)cc2F)c1` [Example 281, (S)-4-(3-amino-6-cyclo-propylpyrazin-2-yl)-2-fluoro-N-(2-hydroxy-1-(3-(methylsulfonyl)phenyl)ethyl) benzamide]: the IC50 is 1.79 nM.

In turn, `Cc1nn(C)cc1-c1cnc(N)c(-c2ccc(C(=O)N[C@H](CO)c3cccc(F)c3)c(F)c2)c1` [Example 282, (S)-4-(2-amino-5-(1,3-dimethyl-1H-pyrazol-4-yl)pyridin-3-yl)-2-fluoro-N-(1-(3-fluorophenyl)-2-hydroxyethyl) benzamide] displayed an IC50 of 1.2 nM.

As to `Cc1nn(C)cc1-c1cnc(N)c(-c2ccc(C(=O)N[C@H](CO)c3cccc(S(C)(=O)=O)c3)c(F)c2)c1` [Example 284, (S)-4-(2-amino-5-(1,3-dimethyl-1H-pyrazol-4-yl)pyridin-3-yl)-2-fluoro-N-(2-hydroxy-1-(3-(methylsulfonyl)phenyl)ethyl) benzamide], 0.296 nM corresponded to half-maximal inhibition (IC50).

The molecule `CS(=O)(=O)c1cc(F)cc(CNC(=O)c2ccc(-c3nc(C4CC4)cnc3N)cc2F)c1` [Example 286, 4-(3-amino-6-cyclo-propylpyrazin-2-yl)-2-fluoro-N-(3-fluoro-5-(methylsulfonyl)benzyl)benzamide] yielded an IC50 of 3.9 nM.

On to `C[C@@H](NC(=O)c1ccc(-c2nc(C3CC3)cnc2N)cc1F)c1cc(F)cc(S(C)(=O)=O)c1` [Example 287, (R)-4-(3-amino-6-cyclo-propylpyrazin-2-yl)-2-fluoro-N-(1-(3-fluoro-5-(methylsulfonyl)phenyl)ethyl) benzamide], for which the IC50 stood at 0.794 nM.

For `C[C@@H](NC(=O)c1ccc(-c2cc(C3CC3)cnc2N)cc1F)c1cc(F)cc(S(C)(=O)=O)c1` [Example 288, (R)-4-(2-amino-5-cyclo-propylpyridin-3-yl)-2-fluoro-N-(1-(3-fluoro-5-(methylsulfonyl)phenyl)ethyl) benzamide], the IC50 amounted to 2.03 nM.

In turn, `Nc1ncc(-c2cn[nH]c2)cc1-c1ccc(C(=O)N[C@H](CO)c2ccccc2)c(F)c1` [Example 290, (S)-4-(2-amino-5-(1H-pyrazol-4-yl)pyridin-3-yl)-2-fluoro-N-(2-hydroxy-1-phenylethyl) benzamide] gave an IC50 of 1.74 nM.

`CC(C)n1cc(-c2cnc(N)c(-c3ccc(C(=O)N[C@H](CO)c4cccc(S(C)(=O)=O)c4)c(F)c3)c2)cn1` [Example 291, (S)-4-(2-amino-5-(1-isopropyl-1H-pyrazol-4-yl)pyridin-3-yl)-2-fluoro-N-(2-hydroxy-1-(3-(methylsulfonyl)phenyl)ethyl) benzamide] returned an IC50 of 1.48 nM.

`CC(C)n1cc(-c2cnc(N)c(-c3ccc(C(=O)N[C@H](CO)c4cccc(F)c4)c(F)c3)c2)cn1` [Example 292, (S)-4-(2-amino-5-(1-isopropyl-1H-pyrazol-4-yl)pyridin-3-yl)-2-fluoro-N-(1-(3-fluorophenyl)-2-hydroxyethyl) benzamide]: the IC50 came out at 2.82 nM.

Regarding `Cc1c(-c2cnc(N)c(-c3ccc(C(=O)N[C@H](CO)c4cccc(F)c4)c(F)c3)c2)cnn1C` [Example 295, (S)-4-(2-amino-5-(1,5-dimethyl-1H-pyrazol-4-yl)pyridin-3-yl)-2-fluoro-N-(1-(3-fluorophenyl)-2-hydroxyethyl) benzamide], the IC50 worked out at 0.595 nM.

Take `CCn1cc(-c2cnc(N)c(-c3ccc(C(=O)N[C@H](CO)c4cccc(S(C)(=O)=O)c4)c(F)c3)c2)cn1` [Example 296, (S)-4-(2-amino-5-(1-ethyl-1H-pyrazol-4-yl)pyridin-3-yl)-2-fluoro-N-(2-hydroxy-1-(3-(methylsulfonyl)phenyl)ethyl) benzamide]: the midpoint of inhibition, the IC50, lay at 1.08 nM.

For `CCn1cc(-c2cnc(N)c(-c3ccc(C(=O)N[C@H](CO)c4cccc(F)c4)c(F)c3)c2)cn1` [Example 298, (S)-4-(2-amino-5-(1-ethyl-1H-pyrazol-4-yl)pyridin-3-yl)-2-fluoro-N-(1-(3-fluorophenyl)-2-hydroxyethyl) benzamide], the half-maximal inhibitory concentration (IC50) was 1.95 nM.

Consider `CCn1cc(-c2cnc(N)c(-c3ccc(C(=O)N[C@H](C)c4cccc(S(C)(=O)=O)c4)c(F)c3)c2)cn1` [Example 299, (R)-4-(2-amino-5-(1-ethyl-1H-pyrazol-4-yl)pyridin-3-yl)-2-fluoro-N-(1-(3-(methylsulfonyl)phenyl)ethyl) benzamide], for which 3.57 nM corresponded to half-maximal inhibition (IC50).

`C[C@@H](NC(=O)c1ccc(-c2cc(-c3cnnn3C)cnc2N)cc1F)c1cccc(Cl)c1` [Example 303, (R)-4-(2-amino-5-(1-methyl-1H-1,2,3-triazol-5-yl)pyridin-3-yl)-N-(1-(3-chlorophenyl)ethyl)-2-fluorobenzamide] had an IC50 of 0.221 nM.

As for `Cn1nncc1-c1cnc(N)c(-c2ccc(C(=O)N[C@H](CO)c3ccccc3)c(F)c2)c1` [Example 304, (S)-4-(2-amino-5-(1-methyl-1H-1,2,3-triazol-5-yl)pyridin-3-yl)-2-fluoro-N-(2-hydroxy-1-phenylethyl) benzamide], the IC50 came out at 2.5 nM.

Consider `Cn1nncc1-c1cnc(N)c(-c2ccc(C(=O)N[C@H](CO)c3cccc(F)c3)c(F)c2)c1` [Example 305, (S)-4-(2-amino-5-(1-methyl-1H-1,2,3-triazol-5-yl)pyridin-3-yl)-2-fluoro-N-(1-(3-fluorophenyl)-2-hydroxyethyl) benzamide], for which the IC50 came to 1.91 nM.

`Cc1cccc([C@@H](CO)NC(=O)c2ccc(-c3cc(-c4cnnn4C)cnc3N)cc2F)c1` [Example 306, (S)-4-(2-amino-5-(1-methyl-1H-1,2,3-triazol-5-yl)pyridin-3-yl)-2-fluoro-N-(2-hydroxy-1-(m-tolyl)ethyl) benzamide] had an IC50 of 0.378 nM.

In turn, `Cn1cc(-c2cnc(N)c(-c3ccc(C(=O)NC(CN)c4cccc(Cl)c4)c(F)c3)c2)cn1` (centres unmarked) [Example 307, N-(2-amino-1-(3-chlorophenyl)ethyl)-4-(2-amino-5-(1-methyl-1H-pyrazol-4-yl)pyridin-3-yl)-2-fluorobenzamide] came in with an IC50 of 0.2 nM.

With `CS(=O)(=O)c1cc(F)cc(CNC(=O)c2ccc(-c3nc(C4CCOCC4)cnc3N)cc2F)c1` [Example 310, 4-(3-amino-6-(tetrahydro-2H-pyran-4-yl)pyrazin-2-yl)-2-fluoro-N-(3-fluoro-5-(methylsulfonyl)benzyl)benzamide], the IC50 came out at 0.242 nM.

Take `CCn1cc(-c2cnc(N)c(-c3ccc(C(=O)N[C@H](C)c4cc(F)cc(S(C)(=O)=O)c4)c(F)c3)c2)cn1` [Example 313, (R)-4-(2-amino-5-(1-ethyl-1H-pyrazol-4-yl)pyridin-3-yl)-2-fluoro-N-(1-(3-fluoro-5-(methylsulfonyl)phenyl)ethyl) benzamide]: the midpoint of inhibition, the IC50, lay at 0.617 nM.

In turn, `CCn1cc(-c2cnc(N)c(-c3ccc(C(=O)N[C@H](CO)c4ccccc4)c(F)c3)c2)cn1` [Example 314, (S)-4-(2-amino-5-(1-ethyl-1H-pyrazol-4-yl)pyridin-3-yl)-2-fluoro-N-(2-hydroxy-1-phenylethyl) benzamide] gave an IC50 of 1.48 nM. Compared with the last molecule, the IC50 is about 2.4-fold higher.

Consider `Nc1ncc(C2CNC(=O)C2)cc1-c1ccc(C(=O)NCc2ccccc2)c(F)c1` (centres unmarked) [Example 316, 4-(2-amino-5-(5-oxopyrrolidin-3-yl)pyridin-3-yl)-N-benzyl-2-fluorobenzamide], for which the IC50 amounted to 330 nM. This IC50 is about 220-fold higher than that of the molecule before.

`Cc1ccnc(CNC(=O)c2ccc(-c3cc(C4CCOCC4)cnc3N)cc2F)n1` [Example 317, 4-(2-amino-5-(tetrahydro-2H-pyran-4-yl)pyridin-3-yl)-2-fluoro-N-((4-methylpyrimidin-2-yl)methyl) benzamde] registered an IC50 of 1340 nM. This IC50 lies about 4.1-fold higher than the previous one.

In turn, `NC(=O)c1ccc(-c2nc(C3CCOCC3)cnc2N)cc1F` [Example 319, 4-(3-amino-6-(tetrahydro-2H-pyran-4-yl)pyrazin-2-yl)-2-fluorobenzamide] yielded an IC50 of 151 nM.
